Results reported in patent publication US20230257396A1, “MACROCYCLES AND THEIR USE” (BLOSSOMHILL THERAPEUTICS, INC., priority 2020, published 2023).

Legend:
Assay in all cases: KINOMEscan kinase binding assay (Eurofins/DiscoveRx), % Ctrl
Conditions in all cases: 1 μM
kinases [1] = biological target: T1, kinases (Homo sapiens, UniProt P00519)
T1 construct: purchased Eurofins/DiscoveRx; host or cells: E. coli BL21-derived host (T7 phage display) for most kinases; HEK-293 for the rest
Protocol: (§1) Kinase binding assays were performed at Eurofins/DiscoveRx using the general KINOMEscan Protocol (Fabian, M. A. et al., “A small molecule-kinase interaction map for clinical kinase inhibitors,” Nat. Biotechnol. 2005, 23(3):329-36). For most assays, kinase-tagged T7 phage strains were prepared in an E. coli host derived from the BL21 strain. E. coli were grown to log-phase and infected with T7 phage and incubated with shaking at 32° C. until lysis. The lysates were centrifuged and filtered to remove cell debris. The remaining kinases were produced in HEK-293 cells and subsequently tagged with DNA for qPCR detection. Streptavidin-coated magnetic beads were treated with biotinylated small molecule ligands for 30 minutes at room temperature to generate affinity resins for kinase assays. The liganded beads were blocked with excess biotin and washed with blocking buffer (SeaBlock (Pierce), 1% BSA, 0.05% Tween 20, 1 mM DTT) to remove unbound ligand and to reduce nonspecific binding. Binding reactions were assembled by combining kinases, liganded affinity beads, and test compounds in 1×binding buffer (20% SeaBlock, 0.17×PBS, 0.05% Tween 20, 6 mM DTT). All reactions were performed in polystyrene 96-well plates in a final volume of 0.135 mL. The assay plates were incubated at room temperature with shaking for 1 hour and the affinity beads were washed with washbuffer (1×PBS, 0.05% Tween 20). The beads were then re-suspended in elution buffer (1× PBS, 0.05% Tween 20, 0.5 μM non-biotinylated affinity ligand) and incubated at room temperature with shaking for 30 minutes. The kinase concentration in the eluates was measured by qPCR. Results for compounds tested in this assay at a given concentration are reported as “% Ctrl”, where lower numbers indicate stronger binding in the matrix.
(§2) (test compound signal-positive control signal)/(negative control signal-positive control signal) X100

kinases [2] = biological target: T2, kinases (Homo sapiens, UniProt P00519, F317I)
T2 construct: purchased Eurofins/DiscoveRx; host or cells: E. coli BL21-derived host (T7 phage display) for most kinases; HEK-293 for the rest
Protocol: as §1, §2

kinases [3] = biological target: T3, kinases (Homo sapiens, UniProt P00533, DEL752-759)
T3 construct: purchased Eurofins/DiscoveRx; host or cells: E. coli BL21-derived host (T7 phage display) for most kinases; HEK-293 for the rest
Protocol: as §1, §2

kinases [4] = biological target: T4, kinases (Homo sapiens, UniProt P00533, G719C)
T4 construct: purchased Eurofins/DiscoveRx; host or cells: E. coli BL21-derived host (T7 phage display) for most kinases; HEK-293 for the rest
Protocol: as §1, §2

kinases [5] = biological target: T5, kinases (Homo sapiens, UniProt P00533, L858R)
T5 construct: purchased Eurofins/DiscoveRx; host or cells: E. coli BL21-derived host (T7 phage display) for most kinases; HEK-293 for the rest
Protocol: as §1, §2

kinases [6] = biological target: T6, kinases (Homo sapiens, UniProt P09619)
T6 construct: purchased Eurofins/DiscoveRx; host or cells: E. coli BL21-derived host (T7 phage display) for most kinases; HEK-293 for the rest
Protocol: as §1, §2

kinases [7] = biological target: T7, kinases (Homo sapiens, UniProt P10721)
T7 construct: purchased Eurofins/DiscoveRx; host or cells: E. coli BL21-derived host (T7 phage display) for most kinases; HEK-293 for the rest
Protocol: as §1, §2

kinases [8] = biological target: T8, kinases (Homo sapiens, UniProt P10721, D816V)
T8 construct: purchased Eurofins/DiscoveRx; host or cells: E. coli BL21-derived host (T7 phage display) for most kinases; HEK-293 for the rest
Protocol: as §1, §2

kinases [9] = biological target: T9, kinases (Homo sapiens, UniProt P10721, V559D)
T9 construct: purchased Eurofins/DiscoveRx; host or cells: E. coli BL21-derived host (T7 phage display) for most kinases; HEK-293 for the rest
Protocol: as §1, §2

kinases [10] = biological target: T10, kinases (Homo sapiens, UniProt P16234)
T10 construct: purchased Eurofins/DiscoveRx; host or cells: E. coli BL21-derived host (T7 phage display) for most kinases; HEK-293 for the rest
Protocol: as §1, §2

kinases [11] = biological target: T11, kinases (Homo sapiens, UniProt P17948)
T11 construct: purchased Eurofins/DiscoveRx; host or cells: E. coli BL21-derived host (T7 phage display) for most kinases; HEK-293 for the rest
Protocol: as §1, §2

kinases [12] = biological target: T12, kinases (Homo sapiens, UniProt P35916)
T12 construct: purchased Eurofins/DiscoveRx; host or cells: E. coli BL21-derived host (T7 phage display) for most kinases; HEK-293 for the rest
Protocol: as §1, §2

kinases [13] = biological target: T13, kinases (Homo sapiens, UniProt P36888, D835H)
T13 construct: purchased Eurofins/DiscoveRx; host or cells: E. coli BL21-derived host (T7 phage display) for most kinases; HEK-293 for the rest
T13 sequence (P36888 27-993 D835H): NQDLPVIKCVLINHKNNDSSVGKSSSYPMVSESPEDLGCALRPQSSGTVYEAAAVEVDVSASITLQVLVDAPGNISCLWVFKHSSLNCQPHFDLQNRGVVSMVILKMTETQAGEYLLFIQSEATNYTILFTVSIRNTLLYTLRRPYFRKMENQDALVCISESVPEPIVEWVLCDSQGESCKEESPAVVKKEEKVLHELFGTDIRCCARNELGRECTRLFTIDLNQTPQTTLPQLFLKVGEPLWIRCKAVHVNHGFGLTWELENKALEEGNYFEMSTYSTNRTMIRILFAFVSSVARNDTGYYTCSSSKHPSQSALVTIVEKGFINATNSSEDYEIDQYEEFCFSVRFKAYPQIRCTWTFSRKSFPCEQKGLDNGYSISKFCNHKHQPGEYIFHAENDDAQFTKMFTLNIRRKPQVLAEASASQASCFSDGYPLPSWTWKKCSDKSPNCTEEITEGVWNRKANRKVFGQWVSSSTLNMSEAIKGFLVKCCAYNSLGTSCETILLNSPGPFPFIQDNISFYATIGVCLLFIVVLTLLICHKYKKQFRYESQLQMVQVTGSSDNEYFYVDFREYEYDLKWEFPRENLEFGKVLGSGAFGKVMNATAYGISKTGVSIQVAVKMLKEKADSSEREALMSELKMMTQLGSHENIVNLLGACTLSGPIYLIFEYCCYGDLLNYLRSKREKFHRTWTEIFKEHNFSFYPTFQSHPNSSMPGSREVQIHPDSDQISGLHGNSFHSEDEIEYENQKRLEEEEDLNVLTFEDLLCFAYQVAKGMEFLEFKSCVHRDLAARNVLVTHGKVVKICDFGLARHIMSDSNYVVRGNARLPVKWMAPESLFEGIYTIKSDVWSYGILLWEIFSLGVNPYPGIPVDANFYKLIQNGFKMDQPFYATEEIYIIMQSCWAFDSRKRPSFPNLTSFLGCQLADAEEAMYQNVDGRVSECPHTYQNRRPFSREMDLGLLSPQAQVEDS
Protocol: as §1, §2

T8 sequence (P10721 26-976 D816V): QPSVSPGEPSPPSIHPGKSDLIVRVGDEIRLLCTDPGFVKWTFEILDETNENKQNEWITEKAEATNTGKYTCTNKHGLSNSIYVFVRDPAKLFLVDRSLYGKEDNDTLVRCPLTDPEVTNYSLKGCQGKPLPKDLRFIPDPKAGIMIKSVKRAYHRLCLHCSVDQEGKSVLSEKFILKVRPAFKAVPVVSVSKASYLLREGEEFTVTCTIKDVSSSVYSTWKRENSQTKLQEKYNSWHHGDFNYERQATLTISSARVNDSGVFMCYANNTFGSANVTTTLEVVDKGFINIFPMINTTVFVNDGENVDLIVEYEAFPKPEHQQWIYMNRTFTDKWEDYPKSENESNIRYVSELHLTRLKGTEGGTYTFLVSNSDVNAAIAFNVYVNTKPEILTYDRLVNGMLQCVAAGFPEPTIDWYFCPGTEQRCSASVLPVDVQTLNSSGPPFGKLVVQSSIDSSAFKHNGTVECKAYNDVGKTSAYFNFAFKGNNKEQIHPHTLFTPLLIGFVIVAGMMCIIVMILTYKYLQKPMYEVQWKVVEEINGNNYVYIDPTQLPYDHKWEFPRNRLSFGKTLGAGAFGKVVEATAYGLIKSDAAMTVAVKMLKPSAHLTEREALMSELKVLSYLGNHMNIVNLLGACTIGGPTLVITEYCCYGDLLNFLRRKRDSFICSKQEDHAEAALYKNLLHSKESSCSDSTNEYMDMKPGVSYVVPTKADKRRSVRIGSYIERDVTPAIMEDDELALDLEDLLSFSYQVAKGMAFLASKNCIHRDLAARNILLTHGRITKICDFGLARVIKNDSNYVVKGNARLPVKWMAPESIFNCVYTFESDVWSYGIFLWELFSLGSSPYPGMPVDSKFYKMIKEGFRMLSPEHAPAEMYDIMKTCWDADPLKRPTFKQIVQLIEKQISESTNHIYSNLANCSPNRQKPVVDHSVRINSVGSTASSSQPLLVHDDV
T10 sequence (P16234 24-1089): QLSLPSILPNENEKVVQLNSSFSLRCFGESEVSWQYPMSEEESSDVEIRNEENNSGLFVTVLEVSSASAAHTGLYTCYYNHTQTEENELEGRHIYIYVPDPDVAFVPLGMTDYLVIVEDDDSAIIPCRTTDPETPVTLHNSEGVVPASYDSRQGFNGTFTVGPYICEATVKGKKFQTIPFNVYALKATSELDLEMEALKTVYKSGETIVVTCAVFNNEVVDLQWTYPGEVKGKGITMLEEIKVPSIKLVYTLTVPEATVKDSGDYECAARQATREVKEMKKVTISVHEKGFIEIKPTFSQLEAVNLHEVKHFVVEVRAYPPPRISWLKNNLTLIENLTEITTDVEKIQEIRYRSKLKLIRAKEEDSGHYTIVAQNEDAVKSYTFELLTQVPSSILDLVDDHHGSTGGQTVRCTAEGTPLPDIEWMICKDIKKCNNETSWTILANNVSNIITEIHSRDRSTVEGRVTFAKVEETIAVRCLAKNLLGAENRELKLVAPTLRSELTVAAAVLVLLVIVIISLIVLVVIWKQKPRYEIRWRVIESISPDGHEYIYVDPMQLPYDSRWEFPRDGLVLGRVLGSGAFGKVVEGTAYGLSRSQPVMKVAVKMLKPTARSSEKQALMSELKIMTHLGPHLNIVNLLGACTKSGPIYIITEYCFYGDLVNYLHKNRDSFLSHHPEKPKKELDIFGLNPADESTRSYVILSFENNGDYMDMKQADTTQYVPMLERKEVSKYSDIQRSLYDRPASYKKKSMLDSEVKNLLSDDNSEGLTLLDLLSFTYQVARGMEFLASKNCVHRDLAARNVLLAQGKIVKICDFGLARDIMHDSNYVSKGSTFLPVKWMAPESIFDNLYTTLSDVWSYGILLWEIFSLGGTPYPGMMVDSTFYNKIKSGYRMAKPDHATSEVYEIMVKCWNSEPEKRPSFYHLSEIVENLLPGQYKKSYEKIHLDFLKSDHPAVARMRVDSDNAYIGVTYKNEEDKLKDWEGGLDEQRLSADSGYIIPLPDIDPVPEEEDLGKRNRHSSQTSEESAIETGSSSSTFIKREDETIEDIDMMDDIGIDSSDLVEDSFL
T6 sequence (P09619 33-1106): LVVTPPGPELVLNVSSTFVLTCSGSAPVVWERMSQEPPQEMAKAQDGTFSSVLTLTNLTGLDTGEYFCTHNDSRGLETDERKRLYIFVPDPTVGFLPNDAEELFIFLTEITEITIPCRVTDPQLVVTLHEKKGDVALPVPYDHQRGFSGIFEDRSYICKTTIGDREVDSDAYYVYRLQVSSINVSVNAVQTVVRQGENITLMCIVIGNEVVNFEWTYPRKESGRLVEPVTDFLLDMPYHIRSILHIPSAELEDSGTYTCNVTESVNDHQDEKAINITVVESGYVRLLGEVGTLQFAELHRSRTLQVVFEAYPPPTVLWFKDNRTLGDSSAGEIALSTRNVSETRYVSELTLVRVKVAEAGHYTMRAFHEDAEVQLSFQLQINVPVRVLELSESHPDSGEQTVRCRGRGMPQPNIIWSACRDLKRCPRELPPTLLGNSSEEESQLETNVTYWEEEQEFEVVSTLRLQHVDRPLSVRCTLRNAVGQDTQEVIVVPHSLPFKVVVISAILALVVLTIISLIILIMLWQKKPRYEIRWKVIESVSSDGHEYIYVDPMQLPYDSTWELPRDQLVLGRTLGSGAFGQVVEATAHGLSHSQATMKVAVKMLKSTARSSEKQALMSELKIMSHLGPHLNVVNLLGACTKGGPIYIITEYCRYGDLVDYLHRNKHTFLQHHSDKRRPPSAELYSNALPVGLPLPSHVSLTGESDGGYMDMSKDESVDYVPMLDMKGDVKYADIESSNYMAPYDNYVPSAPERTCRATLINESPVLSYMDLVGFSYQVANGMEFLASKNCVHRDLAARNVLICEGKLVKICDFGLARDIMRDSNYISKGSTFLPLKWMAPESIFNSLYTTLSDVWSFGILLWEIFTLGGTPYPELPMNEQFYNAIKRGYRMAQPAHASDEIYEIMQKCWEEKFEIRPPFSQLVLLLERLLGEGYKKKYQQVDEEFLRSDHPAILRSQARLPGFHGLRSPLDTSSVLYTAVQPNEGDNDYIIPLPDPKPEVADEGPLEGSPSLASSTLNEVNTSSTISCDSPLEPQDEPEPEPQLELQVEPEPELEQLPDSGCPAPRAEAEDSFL
T12 sequence (P35916 25-1363): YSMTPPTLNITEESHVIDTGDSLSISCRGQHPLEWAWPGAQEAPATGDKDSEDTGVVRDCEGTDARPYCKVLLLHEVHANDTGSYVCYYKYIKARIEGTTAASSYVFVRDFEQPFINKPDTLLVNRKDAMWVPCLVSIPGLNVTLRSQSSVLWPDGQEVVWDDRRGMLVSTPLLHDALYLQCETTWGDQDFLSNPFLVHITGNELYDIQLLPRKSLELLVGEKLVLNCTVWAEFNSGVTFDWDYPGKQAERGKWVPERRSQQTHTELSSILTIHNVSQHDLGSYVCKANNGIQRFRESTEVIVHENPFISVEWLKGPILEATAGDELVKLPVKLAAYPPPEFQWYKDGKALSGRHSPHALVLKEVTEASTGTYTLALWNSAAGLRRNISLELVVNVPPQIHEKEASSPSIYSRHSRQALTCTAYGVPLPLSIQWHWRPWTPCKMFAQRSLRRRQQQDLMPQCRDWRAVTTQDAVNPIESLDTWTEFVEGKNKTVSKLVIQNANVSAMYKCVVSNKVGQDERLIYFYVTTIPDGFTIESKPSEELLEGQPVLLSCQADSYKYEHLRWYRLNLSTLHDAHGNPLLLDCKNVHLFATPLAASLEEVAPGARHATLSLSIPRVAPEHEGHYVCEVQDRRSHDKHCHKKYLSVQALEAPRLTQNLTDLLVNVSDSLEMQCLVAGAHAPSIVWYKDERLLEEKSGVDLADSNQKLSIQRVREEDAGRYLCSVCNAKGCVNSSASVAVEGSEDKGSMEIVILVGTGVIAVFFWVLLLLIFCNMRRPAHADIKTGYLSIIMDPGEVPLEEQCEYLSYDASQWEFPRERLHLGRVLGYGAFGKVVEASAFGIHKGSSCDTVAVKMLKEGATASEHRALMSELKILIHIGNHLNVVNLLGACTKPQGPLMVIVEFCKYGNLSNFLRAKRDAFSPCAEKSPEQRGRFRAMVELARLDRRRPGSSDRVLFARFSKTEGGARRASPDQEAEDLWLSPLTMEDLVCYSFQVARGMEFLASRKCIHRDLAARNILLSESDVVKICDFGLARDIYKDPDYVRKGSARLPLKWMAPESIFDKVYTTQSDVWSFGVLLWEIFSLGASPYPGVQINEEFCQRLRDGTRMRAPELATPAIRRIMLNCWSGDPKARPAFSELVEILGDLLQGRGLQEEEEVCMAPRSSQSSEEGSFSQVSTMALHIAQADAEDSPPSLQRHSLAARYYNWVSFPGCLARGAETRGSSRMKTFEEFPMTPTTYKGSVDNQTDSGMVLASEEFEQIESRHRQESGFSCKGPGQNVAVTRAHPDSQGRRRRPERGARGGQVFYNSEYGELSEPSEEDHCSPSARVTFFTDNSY
T9 sequence (P10721 26-976 V559D): as the sequence (P10721 26-976 D816V) above, with V534D, V791D counted along it
T7 sequence (P10721 26-976): as the sequence (P10721 26-976 D816V) above, with V791D counted along it

Row | SMILES | % Ctrl, ABL1-nonphosphorylated (kinases [1]; ABL1-nonphosphorylated) [% Ctrl] | % Ctrl, ABL1-phosphorylated (kinases [1]; ABL1-phosphorylated) [% Ctrl] | % Ctrl, ABL1(F317I)-nonphosphorylated (kinases [2]; ABL1(F317I)-nonphosphorylated) [% Ctrl] | % Ctrl, ABL1(F317I)-phosphorylated (kinases [2]; ABL1(F317I)-phosphorylated) [% Ctrl] | % Ctrl, EGFR(S752-I759del) (kinases [3]; EGFR(S752-I759del)) [% Ctrl] | % Ctrl, EGFR(G719C) (kinases [4]; EGFR(G719C)) [% Ctrl] | % Ctrl, EGFR(L858R) (kinases [5]; EGFR(L858R)) [% Ctrl] | % Ctrl, PDGFRB (kinases [6]; PDGFRB) [% Ctrl] | % Ctrl, KIT (kinases [7]; KIT) [% Ctrl] | % Ctrl, KIT-autoinhibited (kinases [7]; KIT-autoinhibited) [% Ctrl] | % Ctrl, KIT(D816V) (kinases [8]; KIT(D816V)) [% Ctrl] | % Ctrl, KIT(V559D) (kinases [9]; KIT(V559D)) [% Ctrl] | % Ctrl, PDGFRA (kinases [10]; PDGFRA) [% Ctrl] | % Ctrl, FLT1 (kinases [11]; FLT1) [% Ctrl] | % Ctrl, FLT4 (kinases [12]; FLT4) [% Ctrl] | % Ctrl, FLT3(D835H) (kinases [13]; FLT3(D835H)) [% Ctrl] | other results
1 | Cc1cc2c([nH]1)/C=C1\C(=O)Nc3ccc(cc31)-c1c(C)n[nH]c1CNCCN(C)C2=O [Ex. 127, [3a(4)Z]-6,9,16-trimethyl-9,10,11,12,13,14-hexahydro-1,17-(ethanediylidene)pyrazolo[4,3-m]dipyrrolo[3,2-f:3′,4′-i][1,4]diazacyclopentadecine-3,8(2H,5H)-dione] | 0.05 | 0 | 2.6 | 5.5 | 57 | 90 | 47 | 28 | 89 | 80 | 48 | 82 | 47 | 54 | 2.1 | 0.15 | –
2 | Cc1cc2c([nH]1)/C=C1\C(=O)Nc3ccc(cc31)OCCOCCNC2=O [Ex. 129, [16a(17)Z]-2-methyl-6,7,9,10-tetrahydro-1H-12,14-(ethanediylidene)dipyrrolo[3,2-i:3′,4′-l][1,4,7]dioxazacyclopentadecine-4,16(5H,15H)-dione] | 84 | 91 | 94 | 100 | 78 | 100 | 100 | 100 | 100 | 78 | 93 | 98 | 100 | 99 | 83 | 44 | –
3 | Cc1cc2c([nH]1)/C=C1\C(=O)Nc3ccc(cc31)-c1c(noc1C)COCCN(C)C2=O [Ex. 128, [3a(4)Z]-6,9,16-trimethyl-1,11-dihydro-2H,13H-1,17-(ethanediylidene)[1,4]oxazolo[4,3-m]dipyrrolo[3,2-f:3′,4′-i][1,4]oxazacyclopentadecine-3,8(5H,9H)-dione] | 60 | 51 | 100 | 55 | 98 | 97 | 88 | 85 | 98 | 97 | 84 | 93 | 89 | 85 | 45 | 23 | –
4 | Cc1cc2c([nH]1)/C=C1\C(=O)Nc3ccc(cc31)-c1c(noc1C(C)C)COCCN(C)C2=O [Ex. 161, [3a(4)Z]-9-methyl-16-(propan-2-yl)-10,11-dihydro-2H,13H-1,17-(ethanediylidene)[1,2]oxazolo[4,3-m]dipyrrolo[3,2-f:3′,4′-i][1,4]oxazacyclopentadecine-3,8(5H,9H)-dione] | – | – | – | – | – | – | – | – | – | – | – | – | – | – | – | – | % Ctrl, ABL1-nonphosphorylated (kinases [1]; target ABL1-nonphosphorylated): 100 % Ctrl; % Ctrl, ABL1-phosphorylated (kinases [1]; target ABL1-phosphorylated): 97 % Ctrl; % Ctrl, ABL1(F317I)-nonphosphorylated (kinases [2]; target ABL1(F317I)-nonphosphorylated): 100 % Ctrl; % Ctrl, ABL1(F317I)-phosphorylated (kinases [2]; target ABL1(F317I)-phosphorylated): 91 % Ctrl; % Ctrl, EGFR(S752-I759del) (kinases [3]; target EGFR(S752-I759del)): 81 % Ctrl; % Ctrl, EGFR(G719C) (kinases [4]; target EGFR(G719C)): 89 % Ctrl; % Ctrl, EGFR(L858R) (kinases [5]; target EGFR(L858R)): 100 % Ctrl; % Ctrl, PDGFRB (kinases [6]; target PDGFRB): 98 % Ctrl; % Ctrl, KIT (kinases [7]; target KIT): 98 % Ctrl; % Ctrl, KIT-autoinhibited (kinases [7]; target KIT-autoinhibited): 100 % Ctrl; % Ctrl, KIT(D816V) (kinases [8]; target KIT(D816V)): 100 % Ctrl; % Ctrl, KIT(V559D) (kinases [9]; target KIT(V559D)): 92 % Ctrl; % Ctrl, PDGFRA (kinases [10]; target PDGFRA): 100 % Ctrl; % Ctrl, FLT1 (kinases [11]; target FLT1): 82 % Ctrl; % Ctrl, FLT4 (kinases [12]; target FLT4): 79 % Ctrl; % Ctrl, FLT3(D835H) (kinases [13]; target FLT3(D835H)): 48 % Ctrl
5 | Cc1cc2c([nH]1)/C=C1\C(=O)Nc3ccc(cc31)O[C@@H](C)COCCN(C)C2=O [Ex. 92, [10S,16a(17)Z]-2,5,10-trimethyl-6,7,9,10-tetrahydro-1H-12,14-(ethanediylidene)dipyrrolo[3,2-i:3′,4′-l][1,4,7]dioxazacyclopentadecine-4,16(5H,15H)-dione] | 0 | 25 | 22 | 89 | 90 | 100 | 98 | 71 | 91 | 100 | 59 | 91 | 95 | 90 | 75 | 32 | –
